Among the data in PubChem BioAssay AID493191 (Broad Institute, 2011) are AC50 values, retold here.

The assay deals with MALME3 melanoma viability, CellTiter-Glo luminescence, 24 h. Kind of assay: growth inhibition of MALME3 cells – cell-based, CellTiter-Glo, cherry-picked, orthogonal assay for MITF inhibitor project, dose response (AID 493191).

In general, AC50 refers to the midpoint of the concentration-response curve, whichever way the signal moves.

On to `O=C(N/N=C\c1ccc([N+](=O)[O-])o1)C1COc2ccccc2O1` (stereo unspecified), for which the AC50 is 32.7 µM.
To `O=C1Nc2cc(C(=O)NCCN3CCCCCC3)ccc2S/C1=C\c1ccccc1` belongs 28.4 µM; to `Cc1cc(NC(=O)c2cncc(Br)c2)ccc1NC(=O)c1cc2ccccc2o1`, 17 µM; to `COc1cc(CNC2CCCC2)cc(Cl)c1OCc1ccccc1Cl`, 17.6 µM.
The result for `Cc1ccc(C)c(C(=O)Cn2ncc(Cl)c(Cl)c2=O)c1` reads 16 µM; that for `COc1ccc(S(=O)(=O)N(C(C)=O)c2ccc(OC(C)=O)c3ccccc23)cc1[N+](=O)[O-]`, 18.1 µM.
To `O=C1C(Cl)=C(Nc2ccccc2)C(=O)c2ccccc21` belongs 5.66 µM; to `COc1ccc(C(=O)/C=C/C(=O)N(CC(=O)NC2CCCCC2)Cc2ccccc2)c(O)c1`, 6.88 µM.
In the case of `FC(F)(F)c1cc(CCN2CCNC[C@@H]2Cc2ccccc2)cc(C(F)(F)F)c1`, the AC50 is 19.3 µM.
To `CC1CCC(C(C)C)C(OC(=O)Cn2c(-c3ccc(F)cc3)[n+](C)c3ccccc32)C1` (stereo unspecified) belongs 12.5 µM.
The result for `Cc1ccc(NCC(=O)N/N=C\c2ccc([N+](=O)[O-])o2)cc1` reads 25.3 µM; that for `CCOc1ccc(-n2c(C)cc(C(=O)CCl)c2C)cc1`, 19.9 µM.
The result for `O=C(Nc1ccccc1N1CCN(C(=O)c2ccccc2)CC1)c1ccc([N+](=O)[O-])o1` reads 27.1 µM; that for `Cc1ccc(Cn2c(=N)n(CC(=O)c3ccc([N+](=O)[O-])cc3)c3ccccc32)cc1`, 18.6 µM; that for `O=C1C=CC(=C(c2ccc(O)cc2)c2ccc(O)cc2)C=C1`, 29.4 µM.
Regarding `Cc1nc2ccccn2c1C(=O)N/N=C/c1ccc([N+](=O)[O-])o1`, the AC50 is 34 µM.
To `O=[N+]([O-])c1ccc(/C=N/N=C/c2ccc([N+](=O)[O-])o2)o1` belongs 12.9 µM; to `O=C(/C=C/c1ccc([N+](=O)[O-])s1)N1CCCCC1`, 30.7 µM; to `Cn1nnnc1Sc1ncnc2scc(-c3ccc(C#N)cc3)c12`, 28.5 µM.
To `CCN(CC)S(=O)(=O)c1ccc(NC(=O)c2cccnc2Cl)c(NC(=O)c2cccnc2Cl)c1` belongs 25.6 µM; to `O=C1NC2c3c(I)sc(I)c3C(=O)C2O1` (stereo unspecified), 16.6 µM.
The result for `COc1cc2c(cc1OC)C(c1ccccc1)N(C(=O)CCl)CC2` (stereo unspecified) reads 18 µM.
Take `COc1ccccc1-c1cc(C(F)(F)F)nc(S(C)(=O)=O)n1`: the AC50 was 19.6 µM.
To `Nc1c(N(CCC2=CCCCC2)C(=O)COc2ccc(F)cc2)c(=O)[nH]c(=O)n1Cc1ccccc1` belongs 15.8 µM.
The result for `CC1C/C(=C\c2cccnc2)C(=O)/C(=C/c2cccnc2)C1` (stereo unspecified) reads 3.9 µM; that for `COC(=O)C1=C(C)N(Cc2ccccc2)C(=NCC(C)C)N[C@H]1c1cccc(C(F)(F)F)c1`, 16.9 µM.
The result for `CC(C)C(=O)N1CCN(c2ccc(NC(=O)c3ccc([N+](=O)[O-])o3)cc2)CC1` reads 12.8 µM.
Turning to `CN(C)CCCNC(=O)/C(=C\c1ccc(-c2ccc(Br)cc2)o1)NC(=O)c1ccccc1`, the AC50 is 16.3 µM.
To `CN1CCN(C2=C(NS(=O)(=O)c3cccs3)C(=O)c3ccccc3C2=O)CC1` belongs 14.6 µM; to `O=c1c2ccccc2nc(/C=C/c2ccc([N+](=O)[O-])o2)n1-c1ccc(O)cc1`, 14.5 µM; to `O=C(Cn1ncc(Cl)c(Cl)c1=O)N1CCN(Cc2ccccc2)CC1`, 8.57 µM.
To `CC1CCC(C(C)C)C(OC(=O)Cn2c(-c3ccccc3)[n+](C)c3ccccc32)C1` (stereo unspecified) belongs 9.63 µM.
The result for `CC(=O)c1c(C)oc2c1C(=O)c1ccccc1C2=O` reads 21.2 µM; that for `CS(=O)(=O)N1CCN(c2ccc(NC(=O)c3ccc([N+](=O)[O-])o3)cc2)CC1`, 16.7 µM.
Regarding `CCOc1ccc2nc(NC3=NC(c4ccc(OC)cc4)CC(=O)N3)nc(C)c2c1` (stereo unspecified), the AC50 was 24.6 µM.
The result for `CC(=O)Nc1ccc(Nc2c3ccccc3nc3ccccc23)cc1` reads 25.2 µM.
The result for `Cc1cc(C)c[n+](C2=C([O-])c3ccccc3C(=O)/C2=N\S(=O)(=O)c2cccs2)c1` reads 9.5 µM; that for `COc1cc(NC(=O)c2[nH]cnc2C(N)=O)cc(C(=O)Nc2cccc(C(F)(F)F)c2)c1`, 11.2 µM.
For the molecule `CCN1/C(=C/c2cc[n+](C)cc2)C=Cc2cc(C)ccc21`, the AC50 is 16.9 µM.
To `CCS(=O)(=O)c1ccc(N=Nc2ccc(O)c3ncccc23)c(OC)c1` belongs 5.85 µM.
The result for `CCOC(=O)c1ccc(NC(=O)c2nc(S(=O)(=O)Cc3ccccc3)ncc2Cl)cc1` reads 4.47 µM; that for `CC(C)(C)c1ccc(Cn2c(=N)n(CC(O)c3ccco3)c3ccccc32)cc1` (stereo unspecified), 18.3 µM.
To `O=C(COC(=O)c1ccccc1C(=O)c1ccc(Cl)c([N+](=O)[O-])c1)NC1CC1` belongs 15.6 µM; to `Cc1ccc(C(C)C)c(OCc2nn(CC(=O)c3ccc(Cl)cc3)c3[n+]2CCCCC3)c1`, 18.4 µM.
With `CN(C)CCCN(C(=O)CCc1ccccc1)c1nc2ccc(Br)cc2s1`, the AC50 was 19.2 µM.
To `O=C(CCl)Nc1cccc(-c2cnc3ccccc3n2)c1` belongs 15.2 µM; to `Cc1ccc(NC(=O)CCl)cc1S(=O)(=O)N1CCCCCC1`, 18.1 µM.
Consider `COc1cccc(/C=N/Nc2ccc(C(=O)O)cc2)c1O`, for which the AC50 was 33.2 µM.
The result for `CC1CCCCC1NC(=O)/C(C#N)=C/C=C/c1ccccc1[N+](=O)[O-]` (stereo unspecified) reads 27.5 µM.
The result for `CC(C)(C)C(=O)Cn1ncc(Cl)c(Cl)c1=O` reads 18 µM; that for `Cc1cc2ncn(/N=C/c3ccc([N+](=O)[O-])o3)c2cc1C`, 15.9 µM; that for `COc1ccc(Oc2cc(NC(=O)c3nn(C)cc3[N+](=O)[O-])cc([N+](=O)[O-])c2)cc1`, 17.7 µM.
The result for `CCOc1ccc(-c2ccc(SC)nn2)cc1` reads 26.5 µM; that for `O=c1c(Cl)c2oc3ccccc3nc-2c2ccccc12`, 14.3 µM.
As for `O=C(COc1ccc(Cl)cc1Cl)Nc1ccccn1`, the AC50 was 14.5 µM.
As for `CCOC(=O)CSC1=NC(=O)/C(=C/c2ccc(OC)cc2)S1`, the AC50 was 3.6 µM.
For the molecule `CN1CCC(N(C)C(=O)/C=C/c2cn(-c3ccccc3)nc2-c2cccs2)CC1`, the AC50 is 29.7 µM.
The result for `O=C1Nc2ccc(Br)cc2/C1=C/C(=O)c1ccc2c(c1)OCO2` reads 32 µM.
To `CCOCCCNC(=O)/C(C#N)=C/c1ccc([N+](=O)[O-])o1` belongs 12.6 µM; to `O=C1C(Cl)=C(N2CCN(c3ccccc3[N+](=O)[O-])CC2)C(=O)c2ccccc21`, 18.2 µM; to `O=C(Cn1ncc(Cl)c(Cl)c1=O)NCC1CCCCC1`, 9.94 µM.
With `COc1ccc(C(=O)/C(C#N)=N/Nc2ccc([N+](=O)[O-])cc2)cc1`, the AC50 is 16 µM.
As for `CCn1c(/C=C/Nc2ccccc2)[n+](CC)c2cc(Cl)c(Cl)cc21`, the AC50 was 29.6 µM.
To `CCN(CC)CCNC(=O)c1c(C)n(-c2ccccc2)c2cc(Br)c(OC)cc12` belongs 18.9 µM; to `O=C(CNC(=O)c1cccc(F)c1)N/N=C/c1ccc([N+](=O)[O-])s1`, 25.1 µM.
To `CC(NC(=O)C12CC3CC(CC(C3)C1)C2)C(=O)NN=Cc1ccc([N+](=O)[O-])o1` (stereo unspecified) belongs 26.9 µM.
